# Data from publication PMC3556473, “Absorption, metabolism and excretion of [^14C]pomalidomide in humans following oral administration” (Cancer Chemotherapy and Pharmacology, 2012).
# Several values for one entry are separate records, joined by “and”; a condition that tells them apart may be missing. Identical values can stand only once.
# Columns and labels:
# [1] = Metabolite profiling of urine and feces (% of dose excreted); format: in vivo, human; conditions: radiochromatography; for % of dose excreted, Urine: pooled urine 0–72 h
# Method: For each subject, urine samples were pooled using an equal percentage by volume of the 0–6, 6–12, 12–24, 24–48 and 48–72 h samples. Pools of the 0–6, 6–12, 12–24, 24–48 and 48-72 h collections were also prepared across subjects and analyzed for metabolite profiling. Samples were mixed and centrifuged prior to the supernatants being transferred to fresh tubes for metabolite profiling analysis.
# For each subject, fecal homogenates for metabolite profiling were pooled using an equal percentage by weight of the 0–24, 24–48, 48–72 and 72–96 h samples. Pools of the 0–24, 24-48, 48–72 and 72–96 h collections were also prepared across subjects and analyzed for metabolite profiling. An aliquot of each pool was extracted with acetonitrile; samples were mixed and centrifuged. The supernatant was removed and the pellets re-suspended with 0.1 % formic acid and extracted with acetonitrile. The combined supernatants were evaporated to dryness under a stream of nitrogen and the residue re-suspended in methanol:0.1 % formic acid in water (1:1). Samples were assayed for extraction recovery prior to metabolite profiling. A control fecal homogenate spiked with [^14C]pomalidomide was extracted in a similar manner to determine the extraction efficiency and stability of [^14C]pomalidomide.
# (§1) HPLC analysis for metabolite profiling (HPLC Method 1) was performed using a Waters 2695 Alliance Separation Module (Waters Corp., Milford, MA) with the autosampler set to 4 °C. [^14C]Pomalidomide and metabolites were separated using an ACE C18 column (150 × 4.6 mm, 3 μm; Advanced Chromatography Technologies, Aberdeen, Scotland) equipped with an ACE C18 guard column (10 × 3 mm, 3 μm). The mobile phases used were 25 mM ammonium acetate in water: pH 5.5 with formic acid (mobile phase A) and methanol (mobile phase B). The column temperature was 30 °C, and the flow rate was 0.7 mL/min. The linear gradient was delivered as follows: 0–2 min 100 % A; 2–38 min to 64 % A; 38–44 min to 0 % A; 44–48 min hold at 0 % A; return to initial conditions over 2 min.
# (§2) Radioactivity profiles for plasma and excreta were determined by collecting the column eluate into 96-well Deepwell LumaPlates™ at a rate of 0.25 min/fraction. The plates were dried and the radioactivity in each well determined using a PerkinElmer TopCount® NXT™ Microplate Scintillation Counter. HPLC radiochromatograms were reconstructed using LC-ARC data handling software.
# PBMC TNF-α production = assay: Inhibition of TNF-α production by LPS-stimulated human PBMC (1-day culture); format: cell-based; conditions: 24 h
# Method: (§3) Metabolites and hydrolysis products of pomalidomide were tested for pharmacological activity in the following three assay systems: (1) inhibition of MM cell proliferation, (2) enhancement of primary human T cell IL-2 production and (3) inhibition of TNF-α production by lipopolysaccharide (LPS)-stimulated human peripheral blood mononuclear cells (PBMC). For all three assay types, compounds were dissolved in 100 % dimethyl sulfoxide (DMSO) and diluted into complete cell culture medium, consisting of Roswell Park Memorial Institute (RPMI)-1640 plus penicillin, streptomycin and L-glutamine (Mediatech, Manassas, VA). The MM cell proliferation cell culture medium contained 10 % fetal bovine serum, while the primary human cell cultures contained 10 % human AB serum (Invitrogen, Brown Deer, WI). The final DMSO concentration in the cell culture media was 0.25 %.
# (§4) The human MM cell line OPM-2 was obtained from DSMZ (Braunschweig, Germany), and human MM cell lines U266 B1 and NCI-H929 were obtained from ATCC (Manassas, VA). Inhibition of MM cell proliferation was assessed by the [^3H]-thymidine incorporation assay in a 3-day culture in the presence of compounds in complete medium, as previously described. Primary human T cells were isolated from PBMC by negative selection using the RosetteSep T Cell Enrichment Cocktail (STEMCELL Technologies, Tukwila, WA) according to the manufacturer’s procedures. Costimulation of T cell IL-2 production was measured in a 2-day culture of primary human T cells isolated from healthy donors stimulated with anti-CD3 antibody in the presence of compounds, as previously described. Inhibition of TNF-α production by LPS-stimulated human PBMC was measured in a 1-day culture in the presence of compound, as previously described.
# [2] = test system: recombinant human CYP (rCYP) enzymes; assay: Incubations of [14C]pomalidomide with 10 recombinant human CYP enzymes, radiochromatography / LC–MS/MS; format: in vitro ADME
# Method: The CYP enzymes responsible for the formation of the hydroxy pomalidomide metabolites were investigated using 10 recombinant human CYP (rCYP) enzymes (CYP1A2, CYP2A6, CYP2B6, CYP2C8, CYP2C9, CYP2C19, CYP2D6, CYP2E1, CYP3A4 and CYP3A5) at 100 pmol/mL. Incubations were prepared using [^14C]pomalidomide (1 μM) in 0.1 M potassium phosphate buffer (pH 7.4) with 4 mM MgCl2, pre-incubated for 5 min at 37 °C. Reactions were initiated by the addition of 1 mM NADPH and continued for 30 or 60 min. Reactions were quenched with two volumes of ice-cold 0.1 % formic acid in acetonitrile containing [^13C5]pomalidomide as internal standard. The samples were mixed and centrifuged, and a subsample of the supernatant evaporated to dryness. The resulting pellet was reconstituted in 0.1 % formic acid in water and acetonitrile (4:1, v/v) and analyzed using HPLC with radiochromatography and/or LC–MS/MS. The rate of formation of the notable human metabolite M17 was calculated and scaled to human in vivo situation using relative abundance method.
# [3] = Plasma pharmacokinetics of pomalidomide and circulating metabolites by radiochromatography (metabolite profiling); format: in vivo, human; parameters: AUC0–24 / AUC0−∞: concentration or dose not given beside the values; conditions: for Plasma (% AUC relative to TRA): AUC0–24 (unchanged drug or metabolite)/AUC0–24 (TRA) * 100 %; for Tmax / half-life: human, oral, 2 mg; for Tmax / half-life / AUC0–24 / AUC0−∞ / C max: plasma, radiochromatography; for Tmax: median and range; for half-life: male, read-out: t ½ (converted); for half-life / AUC0–24 / AUC0−∞ / C max: geometric mean (%CV); for AUC/AUCTRA: plasma exposure relative to total radioactivity
# Method: Individual plasma samples collected from all subjects at 1, 2.5, 4, 6, 10, 12 and 24 h post-dose were analyzed for metabolite profiling. Samples were extracted with acetonitrile, the supernatant was removed, and the pellet was washed with 0.1 % formic acid in water and extracted again with acetonitrile. The combined supernatants were adjusted to 15 or 25 mL by adding acetonitrile then evaporated to dryness under a stream of nitrogen. The residues were re-suspended in 0.1 % formic acid in water, assayed for extraction recovery and analyzed for metabolite profiling. A control plasma sample spiked with [^14C]pomalidomide was extracted in a similar manner to determine the extraction efficiency and stability of [^14C]pomalidomide.
# as §1, §2
# For pomalidomide and metabolite concentrations in plasma based on metabolite profiling data, pharmacokinetic data were generated by non-compartmental analysis of plasma versus time profiles using WinNonlin (version 4.1, Enterprise Edition).
# T cell IL-2 production = assay: Enhancement of primary human T cell IL-2 production (anti-CD3 stimulated, 2-day culture); format: cell-based; conditions: 48 h, anti-CD3 stimulated primary human T cells
# Method: as §3, §4
# H929 MM cell = assay: Inhibition of MM cell proliferation ([3H]-thymidine incorporation, 3-day culture); format: cell-based; conditions: Homo sapiens, NCI-H929
# Method: as §3, §4
# OPM-2 MM cell = assay: as above; format: cell-based; conditions: Homo sapiens
# Method: as §3, §4
# U266 MM cell = assay: as above; format: cell-based; conditions: Homo sapiens, U-266
# Method: as §3, §4
"% of dose excreted, Feces ([1]; pooled feces 0–96 h) [%]",level of metabolite detected by radiochromatography in rCYP incubations ([2]; all rCYP incubations of [14C]pomalidomide 1 μM),level of metabolite detected by radiochromatography in the absence of enzyme ([2]; incubations of [14C]pomalidomide without enzyme) [%],Compound,"% of dose excreted, Urine [1]",IC50 (PBMC TNF-α production) [nM],formation of metabolite in rCYP incubations (LC–MS/MS) ([2]; any of the samples analyzed),Plasma (% AUC relative to TRA) [3] [%],Tmax [3] [h],half-life [3] [h],AUC/AUCTRA [3] [%],AUC0–24 [3],AUC0−∞ [3],C max [3],EC50 (T cell IL-2 production) [nM],IC50 (H929 MM cell) [nM],IC50 (OPM-2 MM cell) [nM],IC50 (U266 MM cell) [nM]
,,,"Nc1ccc(O)c2c1C(=O)N(C1CCC(=O)NC1=O)C2=O (stereo not drawn) [Metabolite M16, 7-hydroxy pomalidomide]",7.0%,> 10000,not observed,6.1,1,14.2,6.13,11.9 (16.8) ngEq*h/mL,17.6 (29.9) ngEq*h/mL,0.907 (27.4) ngEq/mL,> 10000,> 1000,> 1000,> 1000
0.3,2.5–5.9%,5.5,NC(=O)CCC(C(=O)O)N1C(=O)c2cccc(N)c2C1=O (stereo not drawn) [Metabolite M11],23% and 23.3%,> 10000,,6.3,2.5,10,6.34,12.3 (43.6) ngEq*h/mL,15.9 (59.7) ngEq*h/mL,0.965 (33.3) ngEq/mL,> 10000,> 1000,> 1000,> 1000
